Experimental data from article PMC6934184, “Selective DNA-PKcs inhibition extends the therapeutic index of localized radiotherapy and chemotherapy” (The Journal of Clinical Investigation, 2019).

Target: T1, CDC7/DBF4 (Homo sapiens, UniProt O00311)
T1 construct: purchased Thermo Fisher Scientific (Life Technologies) SelectScreen
Experiment: SelectScreen LanthaScreen
Type: binding
Conditions: read-out: % displacement
Summary of the method: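 NU5455 was profiled across the SelectScreen Broad panel of kinase activity and binding assays. Z'LYTE reactions such as CSF1R ran at apparent Km ATP, while the Adapta CAMK1 assay used ATP listed as 10. Values are given as percent.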

T1 sequence (O00311 whole entry): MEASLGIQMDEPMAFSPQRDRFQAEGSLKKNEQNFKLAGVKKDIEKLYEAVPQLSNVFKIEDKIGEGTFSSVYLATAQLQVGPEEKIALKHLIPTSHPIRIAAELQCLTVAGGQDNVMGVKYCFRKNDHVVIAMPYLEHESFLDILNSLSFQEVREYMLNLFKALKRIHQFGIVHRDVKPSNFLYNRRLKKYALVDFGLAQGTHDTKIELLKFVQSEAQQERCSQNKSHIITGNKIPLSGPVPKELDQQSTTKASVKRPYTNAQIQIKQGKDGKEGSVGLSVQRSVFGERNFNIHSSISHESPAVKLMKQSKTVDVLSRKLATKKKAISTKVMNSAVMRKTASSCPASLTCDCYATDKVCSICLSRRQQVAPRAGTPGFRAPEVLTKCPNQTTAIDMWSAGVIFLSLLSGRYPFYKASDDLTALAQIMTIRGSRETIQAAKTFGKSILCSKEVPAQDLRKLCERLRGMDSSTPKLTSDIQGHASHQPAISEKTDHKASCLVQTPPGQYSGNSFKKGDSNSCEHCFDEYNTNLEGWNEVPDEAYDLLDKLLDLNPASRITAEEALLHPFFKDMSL
T1 sequence (Q9UBU7 whole entry partner): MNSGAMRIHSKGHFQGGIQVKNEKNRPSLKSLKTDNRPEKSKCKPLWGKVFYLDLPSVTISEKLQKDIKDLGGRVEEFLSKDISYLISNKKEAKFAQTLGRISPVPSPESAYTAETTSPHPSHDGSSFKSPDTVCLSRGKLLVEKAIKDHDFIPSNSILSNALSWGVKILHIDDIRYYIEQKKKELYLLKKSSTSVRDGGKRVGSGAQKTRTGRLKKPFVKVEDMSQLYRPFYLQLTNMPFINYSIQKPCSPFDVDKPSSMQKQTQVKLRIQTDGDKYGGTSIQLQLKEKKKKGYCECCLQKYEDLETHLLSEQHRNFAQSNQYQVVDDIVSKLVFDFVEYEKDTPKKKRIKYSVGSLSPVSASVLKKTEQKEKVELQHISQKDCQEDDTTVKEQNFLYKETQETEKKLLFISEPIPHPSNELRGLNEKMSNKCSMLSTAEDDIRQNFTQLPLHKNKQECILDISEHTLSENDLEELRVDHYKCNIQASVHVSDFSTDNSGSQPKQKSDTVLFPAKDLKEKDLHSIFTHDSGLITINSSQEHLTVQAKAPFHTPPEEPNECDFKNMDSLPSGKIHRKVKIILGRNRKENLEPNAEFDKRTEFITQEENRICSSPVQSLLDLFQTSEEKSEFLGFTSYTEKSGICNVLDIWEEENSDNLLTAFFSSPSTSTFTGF

`CN(C(=O)CN1CCOCC1)c1ccc2sc3c(-c4cccc5c(=O)cc(N6CC7CCC(C6)O7)oc45)cccc3c2c1` [NU5455] was tested, and the inhibition at 1 µM was 6%.
